Results on 1 compound are retold here after EP0504184B1, “ACTIVE AGENT AGAINST RETROVIRUS GROUP VIRUSES, COMPOSITIONS CONTAINING SAME AND THEIR USE” (PREVISAN S.A., priority 1989, dated 1991).

The test system of one data set is cellules Supt-1. The experiment in a line: Toxicity test of chloroazodine towards Supt-1 cells (cell viability). The format is cell-based, humaine. The source says:
Ces essais comprennent comme matériel de départ : • de la N, N'-dichloroazodicarbonamidine (chloroazodine) à 95 % pure. La pureté a été examinée par chromatographie en couche mince et par un test de carbone-hydrogène (v. BRAZ G.I. et cons., J. Applied Chem. (USSR) 17,565-9 (1944)). • un surnageant de cultures de cellules (Molt-3) continuellement productrices de virus VIH-1. Le surnageant viral utilisé a une activité de transcriptase inverse de 1 x 10^6 cpm/ml. • des cellules d'une lignée T humaine continue de phénotype T4 (Supt-1) cultivée en milieu RPMI, additionné de 10 % de sérum de veau foetal et de 1 % de glutamine.
Essai de toxicité de la chloroazodine vis-à-vis des cellules Supt-1.
La chloroazodine à la dilution de 1/500, ce qui correspond à 2 mg/ml, est toxique pour les cellules Supt-1.

Another data set has as its system lymphocytes normaux. The format is cell-based, humains. The source says: (§1) Des lymphocytes humains provenant du sang périphérique de donneurs séro-négatifs (PBL) sont infectés par du VIH-1 provenant du surnageant de cellules Molt-3, c'est-à-dire de cellules continuellement productrices de ces virus.
(§2) Quatre populations cellulaires sont étudiées quant à leur mortalité : • 1 des lymphocytes normaux en culture (Témoin A). • 2 des lymphocytes normaux en présence de chloroazodine 1/3000. • 3 des lymphocytes infectés non traités (Témoin B). • 4 des lymphocytes infectés, en présence de chloroazodine 1/3000. Tableau 4

The next data set relates to lymphocytes infectés. The data set is described as follows: Mortality of HIV-1 infected human peripheral blood lymphocytes with chloroazodine. The format is cell-based, humains. Conditions: for Nombre de cellules mortes / Nombre de cellules vivantes: HIV-1 infected lymphocytes + chloroazodine 1/3000.
Excerpt: as §1
Au jour 8 de l'infection, celle-ci est contrôlée par l'expression de l'antigène p 24 (Test Elisa, voir Exemple 4).
as §2

Each structure is given as a SMILES string.

As to `NC(N=NC(N)=NCl)=NCl` [chloroazodine, N, N'-dichloroazodicarbonamidine], in the data set with cellules Supt-1 (dilution 1/500 (2 mg/ml)), the “toxicité vis-à-vis des cellules Supt-1” value is recorded as “toxique”. Besides, the “viabilité cellulaire (cellules Supt-1)” value in the data set on cellules Supt-1 (dilution 1/1500 (660 µg/ml)) and in the data set on cellules Supt-1 (dilution 1/3000 (330 µg/ml)) was “ne diminuent par contre pas la viabilité cellulaire” each time. Besides, the “différences entre les témoins A et B et les lymphocytes sains + chloroazodine” value in the data set on lymphocytes normaux was “non significatives”. The “Nombre de cellules mortes” value is 31 with lymphocytes infectés (duration 1 min), 34 in the data set with lymphocytes infectés (duration 10 min), 39 in the data set with lymphocytes infectés (duration 30 min) and 20 in the data set on lymphocytes infectés (duration 180 min). Besides, the “Nombre de cellules vivantes” value with lymphocytes infectés (duration 1 min) was 17; with lymphocytes infectés (duration 10 min), 14; with lymphocytes infectés (duration 30 min), 21; in the data set with lymphocytes infectés (duration 180 min) it was 8. Further, the “toxicité sélective pour des cellules infectées” value in the data set with lymphocytes infectés (conclusion from comparison of infected and normal lymphocytes, chloroazodine 1/3000) is “toxicité sélective de la chloroazodine pour des cellules infectées”.
